Laboratory results published in patent US11840545B1, “Spirooxindole-copper complex as novel efficient anticorrosion agent for C-steel” (KING FAISAL UNIVERSITY, priority 2023, dated 2023).

Key:
[1] = Polarization (Tafel) study of corrosion inhibition; conditions: for IE: polarization, C-steel, 1M HCl, 298 K; for % inhibition from Tafel: summary Table 16, C-steel in 1 M HCl; for % Inhibition from Tafel plots: summary Table 18, C-steel in 1 M HCl
Description: (§1) In an embodiment, the thus formed CuL copper complex can undergo anticorrosion studies by adding the obtained CuL copper complex to hydrochloric acid (for example, at 1M) using a C-steel electrode.
(§2) The % inhibition of Spiro compounds SP34, SP37 and SP311 and their copper complexes for C-steel in hydrochloric acid solution (1M) were computed by Impedance and Polarization studies. The model used for the electrochemical equivalent circuit to fit the impedance for anticorrosion studies of Carbon steel (C-steel) by Spiro inhibitors was CPE with diffusion as shown in FIG. 7.

[2] = Impedance study of corrosion inhibition, equivalent circuit model CPE with Diffusion; conditions: for IE: impedance, C-steel, 1M HCl, 298 K; for % inhibition from Impedance: summary Table 16, C-steel in 1 M HCl; for % Inhibition from Impedance studies: summary Table 17, C-steel in 1 M HCl
Description: as §1, §2

Question: With `Cc1[nH]nnc1C(=O)[C@H]1[C@H](c2cccc(Br)c2)C2CSCN2[C@]12C(=O)Nc1cc(Cl)ccc12` (stereo partly drawn) [SP 311, (3R,6'S,7′R)-7′-(3-bromophenyl)-6-chloro-6′-(5-methyl-1H-1,2,3-triazole-4-carbonyl)-1′,6′,7′,7a′-tetrahydro-3′H-spiro[indoline-3,5′-pyrrolo[1,2-c]thiazol]-2-one] as the compound, how does the IE ([1]; 0.036 mM) read?
Answer: −1.5%

Question: What about the IE ([1]; 0.073 mM) of the same compound?
Answer: 13.0%

Question: What about the IE ([1]; 0.109 mM) of the same compound?
Answer: 81.6%

Question: And the “% inhibition from Tafel” value [1]?
Answer: 81.6%

Question: And the “% Inhibition from Tafel plots” value [1]?
Answer: 81.6%

Question: What about the IE ([2]; 0.036 mM) of the same compound?
Answer: 14.26%

Question: And the IE ([2]; 0.073 mM)?
Answer: 8.96%

Question: What about the IE ([2]; 0.109 mM) of the same compound?
Answer: 62.89%

Question: What about the “% inhibition from Impedance” value [2] of the same compound?
Answer: 62.89%

Question: What about the “% Inhibition from Impedance studies” value [2] of the same compound?
Answer: 62.89%

Question: Which IE ([1]; 0.039 mM) does the source give for `Cc1[nH]nnc1C(=O)[C@H]1[C@H](c2cccc([N+](=O)[O-])c2)C2CSCN2[C@]12C(=O)Nc1cc(Cl)ccc12` (stereo partly drawn) [SP 37, (3R,6'S,7′R)-6-chloro-6′-(5-methyl-1H-1,2,3-triazole-4-carbonyl)-7′-(3-nitrophenyl)-1′,6′,7′,7a′-tetrahydro-3′H-spiro[indoline-3,5′-pyrrolo[1,2-c]thiazol]-2-one] here?
Answer: 49.0%

Question: And the IE ([1]; 0.078 mM)?
Answer: 72.7%

Question: What about the IE ([1]; 0.117 mM) of the same compound?
Answer: 82.1%

Question: What about the “% inhibition from Tafel” value [1] of the same compound?
Answer: 82.1%

Question: And the “% Inhibition from Tafel plots” value [1]?
Answer: 82.1%

Question: What about the IE ([2]; 0.039 mM) of the same compound?
Answer: 21.25%

Question: And the IE ([2]; 0.078 mM)?
Answer: 46.85%

Question: And the IE ([2]; 0.117 mM)?
Answer: 56.53%

Question: And the “% inhibition from Impedance” value [2]?
Answer: 56.53%

Question: And the “% Inhibition from Impedance studies” value [2]?
Answer: 56.53%

Question: With `Cc1[nH]nnc1C(=O)[C@H]1[C@H](c2ccc(Cl)cc2Cl)C2CSCN2[C@]12C(=O)Nc1cc(Cl)ccc12` (stereo partly drawn) [SP 34, (3R,6'S,7′R)-6-chloro-7′-(2,4-dichlorophenyl)-6′-(5-methyl-1H-1,2,3-triazole-4-carbonyl)-1′,6′,7′,7a′-tetrahydro-3′H-spiro[indoline-3,5′-pyrrolo[1,2-c]thiazol]-2-one] as the compound, how does the IE ([1]; 0.037 mM) read?
Answer: 90.5%

Question: And the IE ([1]; 0.075 mM)?
Answer: 97.1%

Question: And the IE ([1]; 0.112 mM)?
Answer: 98.6%

Question: What about the “% inhibition from Tafel” value [1] of the same compound?
Answer: 98.6%

Question: And the “% Inhibition from Tafel plots” value [1]?
Answer: 98.6%

Question: What about the IE ([2]; 0.037 mM) of the same compound?
Answer: 82.48%

Question: And the IE ([2]; 0.075 mM)?
Answer: 94.25%

Question: What about the IE ([2]; 0.112 mM) of the same compound?
Answer: 97.37%

Question: What about the “% inhibition from Impedance” value [2] of the same compound?
Answer: 96.97%

Question: What about the “% Inhibition from Impedance studies” value [2] of the same compound?
Answer: 96.97%
